Key:
[1] = biological target: T1, human recombinant HDAC6 (Homo sapiens, UniProt Q9UBN7); test: HDAC6 enzyme activity inhibition (HDAC Fluorimetric Drug Discovery Kit); format: biochemical; settings: for HDAC6 selectivity (fold): HDAC6 over HDAC1; for IC50: human recombinant HDAC6, same protocol as HDAC1
T1 construct: purchased Calbiochem Inc. 382180
T1 sequence (Q9UBN7 1-1215): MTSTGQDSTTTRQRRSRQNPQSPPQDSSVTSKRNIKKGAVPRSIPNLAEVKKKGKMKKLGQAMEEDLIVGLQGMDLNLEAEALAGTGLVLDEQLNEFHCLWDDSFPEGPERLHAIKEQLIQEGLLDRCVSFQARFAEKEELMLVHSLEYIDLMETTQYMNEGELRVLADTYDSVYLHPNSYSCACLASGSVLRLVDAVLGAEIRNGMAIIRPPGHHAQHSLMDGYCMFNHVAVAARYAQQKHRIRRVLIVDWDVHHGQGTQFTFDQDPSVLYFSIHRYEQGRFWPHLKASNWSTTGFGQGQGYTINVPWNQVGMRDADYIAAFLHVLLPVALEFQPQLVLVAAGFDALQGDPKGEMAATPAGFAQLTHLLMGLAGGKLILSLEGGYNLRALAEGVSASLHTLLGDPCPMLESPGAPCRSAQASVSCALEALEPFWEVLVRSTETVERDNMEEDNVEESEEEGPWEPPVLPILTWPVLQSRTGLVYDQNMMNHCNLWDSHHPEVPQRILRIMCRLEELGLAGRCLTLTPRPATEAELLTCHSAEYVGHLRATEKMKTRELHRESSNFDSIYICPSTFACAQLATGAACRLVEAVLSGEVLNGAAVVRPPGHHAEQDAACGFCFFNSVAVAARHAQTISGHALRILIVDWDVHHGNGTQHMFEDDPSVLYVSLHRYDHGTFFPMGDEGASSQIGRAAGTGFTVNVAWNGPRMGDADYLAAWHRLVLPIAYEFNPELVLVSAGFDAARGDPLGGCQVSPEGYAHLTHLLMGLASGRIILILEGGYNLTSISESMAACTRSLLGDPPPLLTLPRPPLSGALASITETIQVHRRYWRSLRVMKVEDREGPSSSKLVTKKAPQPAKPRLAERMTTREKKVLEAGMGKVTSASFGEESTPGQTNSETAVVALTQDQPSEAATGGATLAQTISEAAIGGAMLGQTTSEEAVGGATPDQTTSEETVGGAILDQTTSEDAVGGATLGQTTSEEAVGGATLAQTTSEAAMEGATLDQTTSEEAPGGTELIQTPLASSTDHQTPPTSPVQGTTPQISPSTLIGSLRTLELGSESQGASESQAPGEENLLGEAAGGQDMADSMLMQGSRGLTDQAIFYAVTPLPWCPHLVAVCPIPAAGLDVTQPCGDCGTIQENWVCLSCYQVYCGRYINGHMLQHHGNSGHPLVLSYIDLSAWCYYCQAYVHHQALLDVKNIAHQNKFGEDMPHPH
Method in brief: (§1)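 Enzyme at 0.3 µg per well was reacted with 10 μM fluorogenic substrate in presence of 5-fold diluted compound, 30° C for 60 min.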

[2] = tested on: hippocampal neurons from a Sprague-Dawley (SD) rat fetus; test: Effect of HDAC6-specific inhibitor on axonal transport of mitochondria in amyloid-beta treated neurons; format: cell-based; settings: transport velocity of mitochondria in neuronal axon after normalization; vehicle = 100%, amyloid beta treatment group = 0%; compound treatment for three hours
Method in brief: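 Rat E17-18 hippocampal neurons exposed to amyloid-beta fragments […]; after 24 h (day 8 in vitro) compound added for 3 h, mitochondria stained with MitoTracker Red CMXRos. Confocal imaging every 1 s for 1 min gave per-mitochondrion velocity, normalized vehicle = 100%, amyloid-beta = 0%.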

[3] = biological target: T2, human recombinant HDAC1 (Homo sapiens, UniProt Q13547); test: HDAC1 enzyme activity inhibition (HDAC Fluorimetric Drug Discovery Kit); format: biochemical; settings: human recombinant HDAC1, Fluor de Lys substrate, 30° C. 60 minutes; read-out: HDAC1
T2 construct: purchased Enzo Life Science, Inc. BML-SE456
Method in brief: as §1

T2 sequence (Q13547 whole entry): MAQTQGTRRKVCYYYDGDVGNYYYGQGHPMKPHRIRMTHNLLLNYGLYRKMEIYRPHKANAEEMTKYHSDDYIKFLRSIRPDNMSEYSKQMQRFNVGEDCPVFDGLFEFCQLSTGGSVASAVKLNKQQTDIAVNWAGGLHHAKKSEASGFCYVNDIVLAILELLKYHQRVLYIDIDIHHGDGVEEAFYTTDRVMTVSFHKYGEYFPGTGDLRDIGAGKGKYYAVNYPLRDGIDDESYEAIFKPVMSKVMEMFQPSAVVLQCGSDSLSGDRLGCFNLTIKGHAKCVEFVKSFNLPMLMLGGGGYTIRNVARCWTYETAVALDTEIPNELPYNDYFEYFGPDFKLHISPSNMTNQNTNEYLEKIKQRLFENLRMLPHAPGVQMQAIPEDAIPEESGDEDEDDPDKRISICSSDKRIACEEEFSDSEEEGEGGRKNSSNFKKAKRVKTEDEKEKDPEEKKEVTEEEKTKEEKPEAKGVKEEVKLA

Compound | HDAC6 selectivity (fold) [1] | IC50 [1] | Velocity distribution (%) [2] | IC50 [3]
Fc1cc(-c2nnc(C(F)F)o2)ccc1Cn1cc(-c2cn3ccccc3n2)nn1 [Compound 17201, 2-(difluoromethyl)-5-(3-fluoro-4-((4-(imidazo[1,2-a]pyridin-2-yl)-1H-1,2,3-triazol-1-yl)methyl)phenyl)-1,3,4-oxadiazole] | 639 fold | 78.2 nM | * (*, 0%˜50%) | > 50000 nM
CC(C)N1CCN(c2cccc(-c3cn(Cc4ccc(-c5nnc(C(F)F)o5)cc4F)nn3)n2)CC1 [Compound 17363, 2-(difluoromethyl)-5-(3-fluoro-4-((4-(6-(4-isopropylpiperazin-1-yl)pyridin-2-yl)-1H-1,2,3-triazol-1-yl)methyl)phenyl)-1,3,4-oxadiazole] | 2212 fold | 22.6 nM | ** (**, 50%˜100%) | > 50000 nM
Fc1cc(-c2nnc(C(F)F)o2)ccc1Cn1cc(-c2ccc(CN3CCC3)cn2)nn1 [Compound 17532, 2-(4-((4-(5-(azetidin-1-yl-methyl)pyridin-2-yl)-1H-1,2,3-triazol-1-yl)methyl)-3-fluorophenyl)5-(difluoromethyl)-1,3,4-oxadiazole] | 2100 fold | 23.8 nM | *** (***, >100%) | > 50000 nM
Fc1cc(-c2nnc(C(F)F)o2)ccc1Cn1cc(-c2ccc(CN3CCCC3)cn2)nn1 [Compound 17533, 2-(difluoromethyl)-5-(3-fluoro-4-((4-(5-(pyrrolidin-1-ylmethyl)pyridin-2-yl)-1H-1,2,3-triazol-1-yl)methyl)phenyl)-1,3,4-oxadiazole] | 2272 fold | 22 nM | * (*, 0%˜50%) | > 50000 nM
CN(C)Cc1ccc(-c2cn(Cc3ccc(-c4nnc(C(F)F)o4)cc3F)nn2)nc1 [Compound 17534, 1-(6-(1-(4-(5-(difluoromethyl)-1,3,4-oxadiazol-2-yl)-2-fluorobenzyl)-1H-1,2,3-triazol-4-yl)pyridin-3-yl)-N,N-dimethylmethanamine] | 1319 fold | 37.9 nM | *** (***, >100%) | > 50000 nM
Fc1cc(-c2nnc(C(F)F)o2)cnc1Cn1cc(-c2ccccn2)nn1 [Compound 17983, 2-(difluoromethyl)-5-(5-fluoro-6-((4-(pyridin-2-yl)-1H-1,2,3-triazol-1-yl)methyl)pyridin-3-yl)-1,3,4-oxadiazole] | 633 fold | 78.9 nM | *** (***, >100%) | > 50000 nM
Fc1cc(-c2nnc(C(F)F)o2)cnc1Cn1cc(-c2ccc(CN3CCCC3)cc2)nn1 [Compound 18058, 2-(difluoromethyl)-5-(5-fluoro-6-((4-(4-(pyrrolidin-1-ylmethyl)phenyl)-1H-1,2,3-triazol-1-yl)methyl)pyridin-3-yl)-1,3,4-oxadiazole] | 2272 fold | 22 nM | *** (***, >100%) | > 50000 nM
CN(C)Cc1ccc(-c2cn(Cc3ccc(-c4nnc(C(F)F)o4)cc3F)nn2)cn1 [Compound 18176, 1-(5-(1-(4-(5-(difluoromethyl)-1,3,4-oxadiazol-2-yl)-2-fluorobenzyl)-1H-1,2,3-triazol-4-yl)pyridin-2-yl)-N,N-dimethylmethanamine] | 705 fold | 70.9 nM | ** (**, 50%˜100%) | > 50000 nM
Fc1cc(-c2nnc(C(F)F)o2)ccc1Cn1cc(-c2ccc(CN3CC[C@H](F)C3)cn2)nn1 [Compound 18185, (S)-2-(difluoromethyl)-5-(3-fluoro-4-((4-(5-((3-fluoropyrrolidin-1-yl)methyl)pyridin-2-yl)-1H-1,2,3-triazol-1-yl)methyl)phenyl)-1,3,4-oxadiazole] | 806 fold | 62 nM | *** (***, >100%) | > 50000 nM
Fc1cc(-c2nnc(C(F)F)o2)cnc1Cn1cc(-c2ccc(CN3CCC3)cc2)nn1 [Compound 18306, 2-(6-((4-(4-(azetidin-1l-ylmethyl)phenyl)-1H-1,2,3-triazol-1-yl)methyl)-5-fluoropyridin-3-yl)-5-(difluoromethyl)-1,3,4-oxadiazole] | 1184 fold | 42.2 nM | *** (***, >100%) | > 50000 nM
CC1CCN(Cc2ccc(-c3cn(Cc4ncc(-c5nnc(C(F)F)o5)cc4F)nn3)cc2)CC1 [Compound 18307, 2-(difluoromethyl)-5-(5-fluoro-6-((4-(4-((4-methylpiperidin-1-yl)methyl)phenyl)-1H-1,2,3-triazol-1-yl)methyl)pyridin-3-yl)-1,3,4-oxadiazole] | 1028 fold | 48.6 nM | *** (***, >100%) | > 50000 nM
CN(C)Cc1ccc(-c2cn(Cc3ncc(-c4nnc(C(F)F)o4)cc3F)nn2)cc1 [Compound 18308, 1-(4-(1-((5-(5-(difluoromethyl)-1,3,4-oxadiazol-2-yl)-3-fluoropyridin-2-yl)methyl)-1H-1,2,3-triazol-4-yl)phenyl)-N,N-dimethylmethanamine] | 770 fold | 64.9 nM | *** (***, >100%) | > 50000 nM
Fc1cc(-c2nnc(C(F)F)o2)cnc1Cn1cc(-c2ccc(CN3CCC3)s2)nn1 [Compound 18309, 2-(6-((4-(5-(azetidin-1-ylmethyl)thiophen-2-yl)-1H-1,2,3-triazol-1-yl)methyl)-5-fluoropyridin-3-yl)-5-(difluoromethyl)-1,3,4-oxadiazole] | 1160 fold | 43.1 nM | ** (**, 50%˜100%) | > 50000 nM
Fc1cc(-c2nnc(C(F)F)o2)cnc1Cn1cc(-c2cccc3[nH]ncc23)nn1 [Compound 19058, 2-(6-((4-(1H-indazol-4-yl)-1H-1,2,3-triazol-1-yl)methyl)-5-fluoropyridin-3-yl)-5-(difluoromethyl)-1,3,4-oxadiazole] | 2304 fold | 21.7 nM | *** (***, >100%) | > 50000 nM
